From patent US11865103B2, “Methods of treating disorders associated with glycosylation defective proteins” (CASE WESTERN RESERVE UNIVERSITY, priority 2016, dated 2024)

Tested on: hCLRN1^N48K-YFP
Experiment: Hair bundle localization of hCLRN1^N48K-YFP (YFP intensity) in neuromast hair cells of live larvae treated with SERCA inhibitors
Format: in vivo, zebrafish
Set-up: key to YFP intensity in the bundle compared to untreated control / YFP intensity, post-exposure hair cell body hCLRN1N48K aggregates recovery: “—” = The YFP intensity in the bundle is similar to untreated control.; “+” = The YFP intensity in the bundle is higher compared to untreated control
Conditions: for Hair bundles with strong expression of hCLRN1^N48K-YFP protein / Increase in trafficking of hCLRN1^N48K to the hair bundle: 1 μM TG or 0.4 μM ART; for Hair bundles with strong expression of hCLRN1^N48K-YFP protein: untreated <5%, FIG. 4I; for Cumulative average of YFP intensity in the ROI in hair bundles (Mean±SEM) / Increase in trafficking of hCLRN1^N48K to the hair bundle: hCLRN1^N48K-YFP, clrn1^+/+ larvae; for Cumulative average of YFP intensity in the ROI in hair bundles (Mean±SEM): 1 uM TG or 0.4 uM ART + 0.01% DMSO in E3 medium, untreated 5.927±0.32; for Increase in trafficking of hCLRN1^N48K to the hair bundle: versus untreated
Protocol: hCLRN1-YFP predominantly localize to the hair bundle and a weak expression in the hair cell membrane in the transgenic hCLRN1-YFP; clrn1^+/+ zebrafish line, and the human pathogenic variant hCLRN1^N48K-YFP mislocalized in the endoplasmic reticulum (ER) with a small amount manages to get trafficked to the hair bundle of the transgenic hCLRN1^N48K-YFP; clrn1^+/+ zebrafish larvae. A relative quantification of YFP fluorescence intensity was carried-out to compare the quantity of hCLRN1^N48K-YFP that manages to localize in the hair bundle to the hCLRN1-YFP in the hair bundle. To quantify the YFP fluorescence intensity, unadjusted 1 micron middle section images of four hair bundles per neuromast were analyzed in Image J. Fluorescence intensity is reported as the background subtracted Integrated Density value. While Confocal microscopy imaging of neuromast hair bundles from the above mentioned groups, YFP fluorescence channel was unadjusted between siblings from the tested groups, and images chosen for figures were near the mean of the group data. Z-stack image of neuromast hair cells were captures using SP2 confocal microscope and the YFP fluorescence measurements in the hair bundles from 1) control uninjected and 2) unconventional secretory pathway cargo injected groups were obtained using ImageJ. A triangle shaped region of interest covering the area of hair bundle in 1 micron thickness middle section of z-stack image of neuromast hair cells was used to obtain YFP fluorescence pixel intensity measurements (Ihair bundle) and an area without hair cells (Ibackground) in the same image. Fluorescence intensity of YFP (Iload) for each hair bundle in a given neuromast was normalized (Iload=Ihair bundle−Ibackground). We analyzed 4 hair bundle per neuromast per larva, and the YFP fluorescence intensity per neuromast was represented as average of 4 hair bundle YFP intensity (IAvg. load=[…] in a neuromast/larva). And the mean of the total IAvg. load per group was considered for statistical comparison between groups. Student's t-test was used to confirm the observed changes in the YFP intensity in the hair bundles of hGRASP55 mRNA injected compared to hSNX27 mRNA injected and uninjected is significant.
Thapsigargin (TG, 1 mg, Sigma-Aldrich, #T9033) stock in 100% DMSO was diluted in E3 medium to make the required final concentration of the drug. Five different concentrations that were earlier reported to induce ER stress and are non-toxic or lower lethal dose (LD50) in the zebrafish (0.1, 0.5, 1.0, 2.5, 5 μM concentrations) were used in this study. A total of 25 larvae per dosage and treatment duration from the genotypes hCLRN1^N48K-YFP; clrn1^+/+ and hCLRN1-YFP; clrn1^+/+, no older than 72 hours post fertilization (hpf) at the start of the experiment, were placed in a well of 12-well uncoated culture plate (BD Falcon, Canaan, CT). For ER stress induction, larvae were incubated in different dosage of TG from 1 hr to overnight at 28.5° C., followed by three times wash with E3 medium at 28.5° C. (Table 2) and hair cells from the hCLRN1^N48K-YFP; clrn1^+/+ and hCLRN1-YFP; clrn1^+/+ lines were examined for the respective protein distribution pattern in the hair cell bundle and the cell body. Live confocal images of ‘O’ and ‘ML1’ neuromasts per larvae were capture using Leica SP2 confocal microscope with 40× oil immersion objective. Unadjusted 1 micron middle section images of four hair bundles per ML1 neuromast of larvae from TG treated and untreated groups were analyzed using Image J software version v. 1.48 (FIG. 4). The hair bundle trafficked amount of hCLRN1^N48K protein corresponds to the change in YFP intensity in the hair bundle in the TG treated larvae. Quantification of YFP fluorescence intensity was carried out as described in the previous experiment for unconventional trafficking of hCLRN1^N48K-YFP by hGRASP55 cargos. […]

`C/C=C(/C)C(=O)O[C@H]1C(C)=C2[C@H]([C@@H]1OC(=O)CCCCCCC)[C@@](C)(OC(C)=O)C[C@H](OC(=O)CCC)[C@@]1(O)[C@H]2OC(=O)[C@@]1(C)O` [TG, Thapsigargin] was tested, and the “Hair bundles with strong expression of hCLRN1^N48K-YFP protein” value was 38%, the “YFP intensity in the bundle compared to untreated control” value (TG 0.1 μM, exposure 1 h) was “—” and the “YFP intensity in the bundle compared to untreated control” value (TG 0.1 μM, exposure 2 h) was “—”. The “YFP intensity in the bundle compared to untreated control” value (TG 0.1 μM, exposure 3 h) was “—”, the “YFP intensity in the bundle compared to untreated control” value (TG 0.1 μM, exposure 4 h) was “—” and the “YFP intensity in the bundle compared to untreated control” value (TG 0.1 μM, exposure 8 h) was “—”. The “YFP intensity in the bundle compared to untreated control” value (TG 0.1 μM, exposure 16 h) was “—”, the “YFP intensity in the bundle compared to untreated control” value (TG 0.5 μM, exposure 1 h) was “—” and the “YFP intensity in the bundle compared to untreated control” value (TG 0.5 μM, exposure 2 h) was “—”. The “YFP intensity in the bundle compared to untreated control” value (TG 0.5 μM, exposure 3 h) was “—”, the “YFP intensity in the bundle compared to untreated control” value (TG 0.5 μM, exposure 4 h) was “—” and the “YFP intensity in the bundle compared to untreated control” value (TG 0.5 μM, exposure 8 h) was “—”. For the same compound, the “YFP intensity in the bundle compared to untreated control” value (TG 1.0 μM, exposure 1 h) was “—”, the “YFP intensity in the bundle compared to untreated control” value (TG 1.0 μM, exposure 2 h) was “—” and the “YFP intensity in the bundle compared to untreated control” value (TG 1.0 μM, exposure 3 h) was “+”. The “Rescue of mutant protein to the hair bundle” value (TG dosages lower than 1 μM) was “inefficient in rescuing mutant protein”, the “Cumulative average of YFP intensity in the ROI in hair bundles (Mean±SEM)” value was 18.59±0.87 and the “Increase in trafficking of hCLRN1^N48K to the hair bundle” value was 3 folds.
In the case of `C[C@@H]1CC[C@H]2[C@@H](C)C(=O)O[C@@H]3O[C@@]4(C)CC[C@@H]1[C@]32OO4` [ART, Artemisinin], the “Hair bundles with strong expression of hCLRN1^N48K-YFP protein” value is reported as 76%, the “YFP intensity in the bundle compared to untreated control” value (ART 0.1 μM, exposure 1 h) is reported as “—” and the “YFP intensity in the bundle compared to untreated control” value (ART 0.1 μM, exposure 2 h) is reported as “—”. The “YFP intensity in the bundle compared to untreated control” value (ART 0.1 μM, exposure 4 h) was “—”, the “YFP intensity in the bundle compared to untreated control” value (ART 0.1 μM, exposure 6 h) was “—” and the “YFP intensity in the bundle compared to untreated control” value (ART 0.1 μM, exposure 8 h) was “—”. The “YFP intensity in the bundle compared to untreated control” value (ART 0.1 μM, exposure 10 h) was “—”, the “YFP intensity, post-exposure hair cell body hCLRN1N48K aggregates recovery” value (ART 0.1 μM, post-exposure recovery time 10 h) was “—” and the “YFP intensity, post-exposure hair cell body hCLRN1N48K aggregates recovery” value (ART 0.1 μM, post-exposure recovery time 24 h) was “—”. For the same compound, the “YFP intensity, post-exposure hair cell body hCLRN1N48K aggregates recovery” value (ART 0.1 μM, post-exposure recovery time 48 h) was “—”, the “YFP intensity in the bundle compared to untreated control” value (ART 0.25 μM, exposure 1 h) was “—” and the “YFP intensity in the bundle compared to untreated control” value (ART 0.25 μM, exposure 6 h) was “—”. For the same compound, the “YFP intensity in the bundle compared to untreated control” value (ART 0.25 μM, exposure 10 h) was “—”, the “YFP intensity, post-exposure hair cell body hCLRN1N48K aggregates recovery” value (ART 0.25 μM, post-exposure recovery time 10 h) was “—” and the “YFP intensity, post-exposure hair cell body hCLRN1N48K aggregates recovery” value (ART 0.25 μM, post-exposure recovery time 24 h) was “—”. For the same compound, the “YFP intensity, post-exposure hair cell body hCLRN1N48K aggregates recovery” value (ART 0.25 μM, post-exposure recovery time 48 h) was “—”, the “YFP intensity in the bundle compared to untreated control” value (ART 0.4 μM, exposure 1 h) was “—” and the “YFP intensity in the bundle compared to untreated control” value (ART 0.4 μM, exposure 2 h) was “—”. For the same compound, the “YFP intensity in the bundle compared to untreated control” value (ART 0.4 μM, exposure 6 h) was “+”, the “Cumulative average of YFP intensity in the ROI in hair bundles (Mean±SEM)” value was 31.04±1.25 and the “Increase in trafficking of hCLRN1^N48K to the hair bundle” value was 5 folds.
